How the values were obtained:
[1] = molecular target: T1, purified FGF-2/FGFR1 complex (Homo sapiens, UniProt P09038+P11362); experiment: Thermal stability assay (TSA) melting curve of the complex (FIG. 1); format: binding; details: 25 μM compound, versus complex alone
T1 construct: made in house; host or cells: Escherichia coli BL21 (DE3) Star
Description: FIG. 1 is a graph showing the thermal stability assay (TSA) data of purified FGF-2.FGFR1 complex with and without the addition of Compound 1o (dotted line: without Compound 1o; solid line: 25 μM Compound 1o).
TSA was utilized to biophysically characterize the recombinant human FGFR1/FGF2 complex in the presence or absence of selected compounds of formula (I), Compounds 1, 2a-2f, 20, 5, 60, and 8-13. Compound 1 was prepared according to the procedures described in Example 1, and the other compounds were obtained from commercial sources. The assay functions by protein denaturation over a temperature gradient. […] Changes in the melting temperature of the protein complex in the presence of each compound were monitored and compounds were screened/ranked using this method.
Complex formation was verified by loading the complexed material on a size exclusion column (superdex 10 300GL S200) and observing the monodisperse peak corresponding to the FGF2/FGFR1 complex (˜ 40 kDa). […] The samples were processed using a Bio-Rad CFX C96 Touch quantitative polymerase chain reaction and run using the FRET assay settings with a heating ramp of 0.3° C./s cycling from 4 to 100° C. Data analysis was performed using the Bio-Rad CFX Manager Software (version 3.1, Bio-Rad) and changes in the melting temperature (Tm) of the complex in the presence of each compound were monitored. […]

[2] = system: human coronavirus 229E; experiment: Anti-coronavirus activity, cell survival (XTT) of infected HAP1 cells; format: cell-based; details: in combination with FGF-2 (1 ng/ml), compound 0.002-1 μM, 4 days incubation, FIG. 7
Description: FIG. 7 is a graph showing the cell survival of HAP1 cells infected with human coronavirus 229E following a 4-day incubation period in the presence of Compound 1o. Compound 1o (0.002 μM, 0.008 μM, 0.04 μM, 0.2 μM, or 1 uM) and FGF-2 (1 ng/mL) were added on Day -1, Day 0, Day 1, and Day 2 of infection by human coronavirus 229E.
(§1) Compound 10 was evaluated for its ability to reduce human coronavirus 229E induced cellular toxicity in HAP1 cells with and without the addition of a low concentration of FGF-2. HAP1 cells were seeded at a density of 1×10^4 cells/well in a volume of 100 μL in DMEM supplemented with 10% FBS. Following a 24-hour incubation at 37° C./5% CO2 the cells were pre-incubated with and without (media only) exogenous FGF-2 (1 ng/ml) and Compound 10 (0.002 μM, 0.008 μM, 0.04 μM, 0.2 μM, or 1 μM; plated in triplicate) for 24 hours prior (D-1) to the addition of human coronavirus 229E at a pre-determined titer. On the day of viral infection (D0), and one and two days thereafter (D1 and D2), freshly prepared FGF-2 and Compound 10 were added. The cultures were incubated for 4 days at 37° C./5% CO2, after which the cells were stained for cell survival with the tetrazolium dye XTT.

[3] = molecular target: FGFR1 (Homo sapiens, UniProt P11362); experiment: Phosphorylation of FGFR1 in a cell-based system; details: cells expressing FGFR1, increasing concentrations, submaximal concentration of FGF-2, FIG. 2
Sequence of FGFR1 (P11362 22-822, species assumed): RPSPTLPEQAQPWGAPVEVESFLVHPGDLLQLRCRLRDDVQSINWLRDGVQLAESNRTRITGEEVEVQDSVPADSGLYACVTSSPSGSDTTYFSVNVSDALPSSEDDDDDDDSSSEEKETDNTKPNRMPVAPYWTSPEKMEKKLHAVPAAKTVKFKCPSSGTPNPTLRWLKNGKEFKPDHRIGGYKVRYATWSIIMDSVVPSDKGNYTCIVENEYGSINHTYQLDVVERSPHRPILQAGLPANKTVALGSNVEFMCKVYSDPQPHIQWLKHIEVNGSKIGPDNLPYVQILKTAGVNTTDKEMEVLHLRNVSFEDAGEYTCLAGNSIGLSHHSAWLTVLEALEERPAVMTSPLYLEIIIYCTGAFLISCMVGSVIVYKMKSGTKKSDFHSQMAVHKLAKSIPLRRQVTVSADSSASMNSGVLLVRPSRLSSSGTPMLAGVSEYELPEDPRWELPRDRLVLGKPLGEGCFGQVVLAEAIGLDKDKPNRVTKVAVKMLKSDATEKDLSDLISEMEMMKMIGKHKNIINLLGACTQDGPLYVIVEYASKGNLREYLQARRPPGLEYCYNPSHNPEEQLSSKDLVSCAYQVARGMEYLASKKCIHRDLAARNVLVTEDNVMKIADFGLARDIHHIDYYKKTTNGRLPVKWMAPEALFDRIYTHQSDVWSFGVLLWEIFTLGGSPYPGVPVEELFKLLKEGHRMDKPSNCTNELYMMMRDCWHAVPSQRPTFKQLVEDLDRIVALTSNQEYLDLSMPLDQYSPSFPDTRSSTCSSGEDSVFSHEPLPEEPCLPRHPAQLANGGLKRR
Sequence of FGFR1 (P09038 143-288 partner, species assumed): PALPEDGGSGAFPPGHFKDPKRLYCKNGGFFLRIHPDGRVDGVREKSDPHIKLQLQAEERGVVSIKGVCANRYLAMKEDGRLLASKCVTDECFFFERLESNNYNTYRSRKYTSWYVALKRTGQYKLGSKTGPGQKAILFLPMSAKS
Description: FIG. 2 is a graph showing the phosphorylation of FGFR1 in the presence of increasing concentrations of Compound 1o in a cell-based system.
Cells expressing FGFR1 were exposed to increasing concentrations of Compound 10 in the presence of a submaximal concentration of FGF-2. Cells were then lysed, and the relative phosphorylation of FGFR1 was assessed using antibodies to non-phosphorylated and phosphorylated FGFR1. The results are shown in FIG. 2, which is a graph showing the phosphorylation of FGFR1 in the presence of increasing concentrations of Compound 10.

[4] = system: rodent model of stroke recovery (MCAO); experiment: Stroke recovery in vivo after middle cerebral artery occlusion (MCAO); details: rat MCAO, 10 mg/kg i.v. on Day 1, 2, 3 after MCAO
Description: Compound 10 was tested for its effectiveness in a rodent model of stroke recovery. Twenty male Sprague Dawley Rats (Charles River Laboratories) each weighing 300-400 g were used in this experiment. First, anesthesia was induced in an induction chamber with 2-3% isoflurane in N2O:O2 (2:1) and maintained with 1-1.5% isoflurane via face mask. Adequate depth of anesthesia was assessed by lack of withdrawal to hindlimb pinch and loss of eyeblink reflex. Once anesthetized, animals received cefazolin sodium (40 mg/kg, i.p.) and buprenorphine SR (0.9-1 mg/kg, s.c.). Cefazolin was used as a prophylactic antibiotic. A veterinary ophthalmic ointment (Sodium Chloride hypertonicity ophthalmic ointment (Muro 128 Sterile Ophthalmic 5% Ointment)) was applied to the eyes. […]
Behavioral evaluations of sensorimotor function were done by investigators blinded to treatment assignment. […] For the forelimb-placing test, the examiner held the rat close to a tabletop and scored the rat's ability to place the forelimb on the tabletop in response to whisker, visual, tactile, or proprioceptive stimulation. Similarly, for the hindlimb placing test, the examiner assessed the rat's ability to place the hindlimb on the tabletop in response to tactile and proprioceptive stimulation. […]

[5] = system: HAP1 cells; experiment: Cell survival (XTT) of HAP1 cells in the absence of virus; format: cell-based; details: compound 0.002-1 μM, FGF-2 1 ng/ml
Description: as §1

T1 sequence (P11362 142-365 limits assumed): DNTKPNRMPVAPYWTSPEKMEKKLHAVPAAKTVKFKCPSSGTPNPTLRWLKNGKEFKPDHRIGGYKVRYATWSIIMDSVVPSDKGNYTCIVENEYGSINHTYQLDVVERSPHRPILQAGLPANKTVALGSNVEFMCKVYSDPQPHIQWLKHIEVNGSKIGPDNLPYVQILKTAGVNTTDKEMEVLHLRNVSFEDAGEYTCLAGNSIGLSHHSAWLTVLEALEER
T1 sequence (P09038 156-288 limits assumed): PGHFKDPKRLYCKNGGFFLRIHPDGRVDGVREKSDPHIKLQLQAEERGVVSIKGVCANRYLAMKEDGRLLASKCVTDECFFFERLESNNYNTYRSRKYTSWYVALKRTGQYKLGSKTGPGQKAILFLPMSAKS

Question: What does the source list for `CCN(CC)c1ccc(C=O)cc1` [Compound 10, 4-diethylaminobenzaldehyde]?
Answer: shift of the TSA melting curve / stability of the complex [1]: increased stability of the complex; cell survival of HAP1 cells infected with human coronavirus 229E [2]: increases cell survival; relative phosphorylation of FGFR1 [3]: augmented the effects of FGF-2; rise in body weight following surgery [4]: not affected; sensorimotor recovery (forelimb placing, hindlimb placing, body swing tests) ([4]; up to Day 21, versus vehicle, p<0.001 two-way repeated-measures ANOVA): clear and significant augmentation of sensorimotor recovery; cell survival in the absence of the virus [5]: no effect on cell survival

Source: US20240173311A1, “METHODS AND COMPOSITIONS FOR MODULATING FGF ACTIVITY” (Recovery Therapeutics, Inc., priority 2021, published 2024)
